Measured values published in article PMC8619001, “Discovery of New Ginsenol-Like Compounds with High Antiviral Activity” (Molecules, 2021).

System: A/Vladivostok/2/2009 (H1N1)
Experiment: microbe, parasite or virus in culture
Type: cell-based
Conditions: Influenza A virus, H1N1, MDCK, 72 h, read-out: IC50 H1N1

## CC(=O)NC12CC(C)(C)C3CCC1(C)CCCC32C [Compound 1a, (1S,3aR,4R,7aS)-N-(2,2,4,7a-tetramethyloctahydro-1,4-etanoinden-3a-yl)-acetamide]
  IC50: 0.38 ± 0.051 µM
